According to patent publication US12102089B2, “Method for inactivating mold spores” (DSM IP ASSETS B.V., priority 2017, dated 2024):

Key:
[1] = tested on: Paecilomyces variotti (ATCC 22319); experiment: Heat treatment of Paecilomyces variotti spores in ice tea with natamycin, visual growth; assay type: cell-based; design: key to growth (+) or no growth (−): growth (+); no growth (−)
Description: Commercially available ice tea (Lipton, peach flavor, non-carbonated, 1.5 L) was adjusted to high water hardness by adding 1 ml of a solution of 39 g CaCl2 and 27 g MgCl2 added to 934 g water. ⅓ of this ice tea preparation (the pH of which was 3.15) was left as-such, ⅓ of the preparation was enriched with 5 ppm natamycin and ⅓ of the preparation was enriched with 10 ppm natamycin. Samples of 5 ml were made from each preparation in 15 ml sterile plastic tubes. Of each preparation 8 samples were pre-heated to the desired pasteurization temperature using a water bath. Temperatures used were RT, 60, 65, 70, 75, 80, 85 and 90° C. When the desired temperature was reached, 100 μl of a 2500 spores/ml spore suspension of Aspergillus niger ATCC 9029AA was added to each tube. Subsequently, the samples were kept for 30 seconds at the temperature in question in the water bath. Next, the samples were cooled on ice to a temperature of 25° C. Samples were incubated at 25° C. and visually examined for growth (formation of mold flakes or turbidity) for two months. Additionally, samples were enumerated according to ISO protocol 21527-1.2008 on day 0 (before heat treatment) and day 1 (after heat treatment) to count immediate loss of viability. […] For the results, see Table 1. […] Example 1 was repeated however with Paecilomyces variotti (ATCC 22319, 1000 spores/ml) instead of Aspergillus niger.

[2] = LC-MS/MS analysis of natamycin and mycosamine in heated ice tea sample; assay type: physicochemical; conditions: 10 ppm natamycin at t=0, heated at 70° C.
Description: For the analysis of mycosamine at low concentrations (ppb level) a sample preparation is used with a cation exchange SPE material to isolate mycosamine from the sample matrix and/or remove possible interfering impurities therefrom. The analysis was performed on LC-MS/MS on a ZIC-HILIC column. For the identification and (semi) quantification a reference of mycosamine was prepared. The concentration of mycosamine in this reference was determined with ^1H-NMR.

[3] = tested on: Taleromyces macrosporus CBS 130.89; conditions: 2.5 ppm natamycin, heat treatment, apple juice; cited from earlier work

natamycin found in sample ([2]; Example 1 ice tea sample (pH 3.15)): < 0.04 mg/L | natamycin found in sample ([2]; Example 2 ice tea sample): < 0.04 mg/L | natamycin found in sample ([2]; Example 3 ice tea sample): < 0.04 mg/L
SMILES: C[C@@H]1C/C=C/C=C/C=C/C=C/[C@H](O[C@@H]2O[C@H](C)[C@@H](O)[C@H](N)[C@@H]2O)C[C@@H]2O[C@](O)(C[C@@H](O)C[C@H]3O[C@@H]3/C=C/C(=O)O1)C[C@H](O)[C@H]2C(=O)O [natamycin]
germination ([1]; 90° C., in the presence of natamycin): no germination occurred | germination ([1]; RT and 60° C., 5 or 10 ppm natamycin): delayed germination | growth (+) or no growth (−) ([1]; T 60, natamycin 5 ppm, day 1): − | growth (+) or no growth (−) ([1]; T 60, natamycin 5 ppm, day 2): − | growth (+) or no growth (−) ([1]; T 60, natamycin 5 ppm, day 3): − | growth (+) or no growth (−) ([1]; T 60, natamycin 5 ppm, day 4): − | growth (+) or no growth (−) ([1]; T 60, natamycin 5 ppm, day 5): − | growth (+) or no growth (−) ([1]; T 60, natamycin 5 ppm, day 6): − | growth (+) or no growth (−) ([1]; T 60, natamycin 5 ppm, day 7): − | growth (+) or no growth (−) ([1]; T 60, natamycin 5 ppm, day 8): − | growth (+) or no growth (−) ([1]; T 60, natamycin 5 ppm, day 9): − | growth (+) or no growth (−) ([1]; T 60, natamycin 5 ppm, day 10): + | growth (+) or no growth (−) ([1]; T 60, natamycin 5 ppm, day 11): + | growth (+) or no growth (−) ([1]; T 60, natamycin 5 ppm, day 12): + | growth (+) or no growth (−) ([1]; T 60, natamycin 5 ppm, day 13): + | growth (+) or no growth (−) ([1]; T 60, natamycin 5 ppm, day 14): + | growth (+) or no growth (−) ([1]; T 60, natamycin 5 ppm, day 15): + | growth (+) or no growth (−) ([1]; T 60, natamycin 5 ppm, day 16): + | growth (+) or no growth (−) ([1]; T 60, natamycin 5 ppm, day 17): + | growth (+) or no growth (−) ([1]; T 60, natamycin 5 ppm, day 50): + | growth (+) or no growth (−) ([1]; T 60, natamycin 10 ppm, day 1): − | growth (+) or no growth (−) ([1]; T 60, natamycin 10 ppm, day 2): − | growth (+) or no growth (−) ([1]; T 60, natamycin 10 ppm, day 3): − | growth (+) or no growth (−) ([1]; T 60, natamycin 10 ppm, day 4): − | growth (+) or no growth (−) ([1]; T 60, natamycin 10 ppm, day 5): − | growth (+) or no growth (−) ([1]; T 60, natamycin 10 ppm, day 6): − | growth (+) or no growth (−) ([1]; T 60, natamycin 10 ppm, day 7): − | growth (+) or no growth (−) ([1]; T 60, natamycin 10 ppm, day 8): − | growth (+) or no growth (−) ([1]; T 60, natamycin 10 ppm, day 9): − | growth (+) or no growth (−) ([1]; T 60, natamycin 10 ppm, day 10): − | growth (+) or no growth (−) ([1]; T 60, natamycin 10 ppm, day 11): − | growth (+) or no growth (−) ([1]; T 60, natamycin 10 ppm, day 12): − | growth (+) or no growth (−) ([1]; T 60, natamycin 10 ppm, day 13): − | growth (+) or no growth (−) ([1]; T 60, natamycin 10 ppm, day 14): + | growth (+) or no growth (−) ([1]; T 60, natamycin 10 ppm, day 15): + | growth (+) or no growth (−) ([1]; T 60, natamycin 10 ppm, day 16): + | growth (+) or no growth (−) ([1]; T 60, natamycin 10 ppm, day 17): + | growth (+) or no growth (−) ([1]; T 60, natamycin 10 ppm, day 50): + | growth (+) or no growth (−) ([1]; T 65, natamycin 5 ppm, day 1): − | growth (+) or no growth (−) ([1]; T 65, natamycin 5 ppm, day 2): − | growth (+) or no growth (−) ([1]; T 65, natamycin 5 ppm, day 3): − | growth (+) or no growth (−) ([1]; T 65, natamycin 5 ppm, day 4): − | growth (+) or no growth (−) ([1]; T 65, natamycin 5 ppm, day 5): − | growth (+) or no growth (−) ([1]; T 65, natamycin 5 ppm, day 6): − | growth (+) or no growth (−) ([1]; T 65, natamycin 5 ppm, day 7): − | growth (+) or no growth (−) ([1]; T 65, natamycin 5 ppm, day 8): − | growth (+) or no growth (−) ([1]; T 65, natamycin 5 ppm, day 9): − | growth (+) or no growth (−) ([1]; T 65, natamycin 5 ppm, day 10): − | growth (+) or no growth (−) ([1]; T 65, natamycin 5 ppm, day 11): − | growth (+) or no growth (−) ([1]; T 65, natamycin 5 ppm, day 12): − | growth (+) or no growth (−) ([1]; T 65, natamycin 5 ppm, day 13): − | growth (+) or no growth (−) ([1]; T 65, natamycin 5 ppm, day 14): − | growth (+) or no growth (−) ([1]; T 65, natamycin 5 ppm, day 15): − | growth (+) or no growth (−) ([1]; T 65, natamycin 5 ppm, day 16): − | growth (+) or no growth (−) ([1]; T 65, natamycin 5 ppm, day 17): − | growth (+) or no growth (−) ([1]; T 65, natamycin 5 ppm, day 50): − | growth (+) or no growth (−) ([1]; T 65, natamycin 10 ppm, day 1): − | growth (+) or no growth (−) ([1]; T 65, natamycin 10 ppm, day 2): − | growth (+) or no growth (−) ([1]; T 65, natamycin 10 ppm, day 3): − | growth (+) or no growth (−) ([1]; T 65, natamycin 10 ppm, day 4): − | growth (+) or no growth (−) ([1]; T 65, natamycin 10 ppm, day 5): − | growth (+) or no growth (−) ([1]; T 65, natamycin 10 ppm, day 6): − | growth (+) or no growth (−) ([1]; T 65, natamycin 10 ppm, day 7): − | growth (+) or no growth (−) ([1]; T 65, natamycin 10 ppm, day 8): − | growth (+) or no growth (−) ([1]; T 65, natamycin 10 ppm, day 9): − | growth (+) or no growth (−) ([1]; T 65, natamycin 10 ppm, day 10): − | growth (+) or no growth (−) ([1]; T 65, natamycin 10 ppm, day 11): − | growth (+) or no growth (−) ([1]; T 65, natamycin 10 ppm, day 12): − | growth (+) or no growth (−) ([1]; T 65, natamycin 10 ppm, day 13): − | growth (+) or no growth (−) ([1]; T 65, natamycin 10 ppm, day 14): − | growth (+) or no growth (−) ([1]; T 65, natamycin 10 ppm, day 15): − | growth (+) or no growth (−) ([1]; T 65, natamycin 10 ppm, day 16): − | growth (+) or no growth (−) ([1]; T 65, natamycin 10 ppm, day 17): − | growth (+) or no growth (−) ([1]; T 65, natamycin 10 ppm, day 50): − | growth (+) or no growth (−) ([1]; T 70, natamycin 5 ppm, day 1): − | growth (+) or no growth (−) ([1]; T 70, natamycin 5 ppm, day 2): − | growth (+) or no growth (−) ([1]; T 70, natamycin 5 ppm, day 3): − | growth (+) or no growth (−) ([1]; T 70, natamycin 5 ppm, day 4): − | growth (+) or no growth (−) ([1]; T 70, natamycin 5 ppm, day 5): − | growth (+) or no growth (−) ([1]; T 70, natamycin 5 ppm, day 6): − | growth (+) or no growth (−) ([1]; T 70, natamycin 5 ppm, day 7): − | growth (+) or no growth (−) ([1]; T 70, natamycin 5 ppm, day 8): − | growth (+) or no growth (−) ([1]; T 70, natamycin 5 ppm, day 9): − | growth (+) or no growth (−) ([1]; T 70, natamycin 5 ppm, day 10): − | growth (+) or no growth (−) ([1]; T 70, natamycin 5 ppm, day 11): − | growth (+) or no growth (−) ([1]; T 70, natamycin 5 ppm, day 12): − | growth (+) or no growth (−) ([1]; T 70, natamycin 5 ppm, day 13): − | growth (+) or no growth (−) ([1]; T 70, natamycin 5 ppm, day 14): − | growth (+) or no growth (−) ([1]; T 70, natamycin 5 ppm, day 15): − | growth (+) or no growth (−) ([1]; T 70, natamycin 5 ppm, day 16): − | growth (+) or no growth (−) ([1]; T 70, natamycin 5 ppm, day 17): − | growth (+) or no growth (−) ([1]; T 70, natamycin 5 ppm, day 50): − | growth (+) or no growth (−) ([1]; T 70, natamycin 10 ppm, day 9): − | growth (+) or no growth (−) ([1]; T 70, natamycin 10 ppm, day 10): − | growth (+) or no growth (−) ([1]; T 70, natamycin 10 ppm, day 11): − | growth (+) or no growth (−) ([1]; T 70, natamycin 10 ppm, day 12): − | growth (+) or no growth (−) ([1]; T 70, natamycin 10 ppm, day 13): − | growth (+) or no growth (−) ([1]; T 70, natamycin 10 ppm, day 14): − | growth (+) or no growth (−) ([1]; T 70, natamycin 10 ppm, day 15): − | growth (+) or no growth (−) ([1]; T 70, natamycin 10 ppm, day 16): − | growth (+) or no growth (−) ([1]; T 70, natamycin 10 ppm, day 17): − | growth (+) or no growth (−) ([1]; T 70, natamycin 10 ppm, day 50): − | duration of prevention of germination [3]: 4 days
